Laboratory results taken from patent publication US9492471B2, “Methods of treating a disease or disorder associated with Bruton'S Tyrosine Kinase” (Celgene Avilomics Research, Inc., priority 2013, dated 2016).
Read-outs that look alike come from different tables or passages of the source.

Assays:
Assay in all cases: HotSpot kinase profiling
Assay type in all cases: biochemical
[1] = target: T1, TTBK2 (Homo sapiens, UniProt Q6IQ55)
T1 construct: purchased Reaction Biology Corp
Method in brief: (§1)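 P81 filtration radiometric readout; 2 h incubation at room temperature; 0.1% phosphoric acid wash; DMSO negative control; % inhibition, mean of replicate runs.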

[2] = target: T2, IKKa/CHUK (Homo sapiens, UniProt O15111)
T2 construct: purchased Reaction Biology Corp
T2 sequence (O15111 1-745): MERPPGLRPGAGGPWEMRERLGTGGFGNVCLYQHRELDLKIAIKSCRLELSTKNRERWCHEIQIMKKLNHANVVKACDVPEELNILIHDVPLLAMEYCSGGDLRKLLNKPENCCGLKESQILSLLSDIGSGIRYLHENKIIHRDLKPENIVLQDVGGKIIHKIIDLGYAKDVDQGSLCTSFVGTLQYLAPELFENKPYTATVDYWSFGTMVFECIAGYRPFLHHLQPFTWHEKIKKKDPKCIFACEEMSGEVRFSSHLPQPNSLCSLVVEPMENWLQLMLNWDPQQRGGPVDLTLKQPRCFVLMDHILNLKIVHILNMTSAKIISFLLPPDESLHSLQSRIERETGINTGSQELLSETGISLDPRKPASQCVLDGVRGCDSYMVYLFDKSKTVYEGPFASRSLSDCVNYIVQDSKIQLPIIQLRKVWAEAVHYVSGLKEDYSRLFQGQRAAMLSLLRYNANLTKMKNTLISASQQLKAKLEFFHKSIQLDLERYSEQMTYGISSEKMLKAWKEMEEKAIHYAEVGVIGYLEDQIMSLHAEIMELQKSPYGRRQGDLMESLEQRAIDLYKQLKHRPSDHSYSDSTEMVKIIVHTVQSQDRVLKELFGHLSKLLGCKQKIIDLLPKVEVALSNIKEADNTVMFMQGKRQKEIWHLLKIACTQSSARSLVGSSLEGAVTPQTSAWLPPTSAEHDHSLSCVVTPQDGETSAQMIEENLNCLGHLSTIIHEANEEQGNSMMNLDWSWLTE
Method in brief: as §1

[3] = target: T3, CHK1 (Homo sapiens, UniProt O14757)
T3 construct: purchased Reaction Biology Corp
T3 sequence (O14757 1-476): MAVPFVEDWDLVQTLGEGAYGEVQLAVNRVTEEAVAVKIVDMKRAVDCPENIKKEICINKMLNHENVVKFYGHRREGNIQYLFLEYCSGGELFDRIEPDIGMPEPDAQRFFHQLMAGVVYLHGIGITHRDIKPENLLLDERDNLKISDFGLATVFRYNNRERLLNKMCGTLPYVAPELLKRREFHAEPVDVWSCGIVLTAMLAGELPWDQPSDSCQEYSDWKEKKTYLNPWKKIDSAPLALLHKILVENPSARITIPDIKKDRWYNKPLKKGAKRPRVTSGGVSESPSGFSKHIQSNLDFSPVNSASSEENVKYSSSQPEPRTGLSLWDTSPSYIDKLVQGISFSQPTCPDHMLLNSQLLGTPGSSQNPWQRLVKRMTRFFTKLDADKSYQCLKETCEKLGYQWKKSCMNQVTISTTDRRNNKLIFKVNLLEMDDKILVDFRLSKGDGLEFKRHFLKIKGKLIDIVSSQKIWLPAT
Method in brief: as §1

[4] = target: T4, PKCb2 (Homo sapiens, UniProt P05771)
T4 construct: purchased Reaction Biology Corp
Method in brief: as §1

[5] = target: T5, DYRK2 (Homo sapiens, UniProt Q92630)
T5 construct: purchased Reaction Biology Corp
T5 sequence (Q92630 1-601): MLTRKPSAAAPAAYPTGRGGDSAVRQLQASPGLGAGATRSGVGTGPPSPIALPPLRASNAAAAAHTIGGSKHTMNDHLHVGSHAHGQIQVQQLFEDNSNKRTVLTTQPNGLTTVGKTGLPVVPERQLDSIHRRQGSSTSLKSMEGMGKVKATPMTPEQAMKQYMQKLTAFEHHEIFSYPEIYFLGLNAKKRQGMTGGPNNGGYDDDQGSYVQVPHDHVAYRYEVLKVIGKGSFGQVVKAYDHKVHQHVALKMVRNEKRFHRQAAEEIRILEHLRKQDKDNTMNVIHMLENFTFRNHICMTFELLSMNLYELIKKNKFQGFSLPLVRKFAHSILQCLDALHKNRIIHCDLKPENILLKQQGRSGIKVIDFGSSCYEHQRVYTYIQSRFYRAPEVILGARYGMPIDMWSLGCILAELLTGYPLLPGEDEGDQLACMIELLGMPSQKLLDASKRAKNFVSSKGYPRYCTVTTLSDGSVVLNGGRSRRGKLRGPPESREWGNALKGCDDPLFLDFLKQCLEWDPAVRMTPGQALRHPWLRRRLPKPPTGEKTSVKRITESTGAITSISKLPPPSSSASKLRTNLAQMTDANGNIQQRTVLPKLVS
Method in brief: as §1

[6] = target: T6, EPHA7 (Homo sapiens, UniProt Q15375)
T6 construct: purchased Reaction Biology Corp
Method in brief: as §1

[7] = target: T7, HIPK2 (Homo sapiens, UniProt Q9H2X6)
T7 construct: purchased Reaction Biology Corp
Method in brief: as §1

[8] = target: T8, STK33 (Homo sapiens, UniProt Q9BYT3)
T8 construct: purchased Reaction Biology Corp
Method in brief: as §1

[9] = read-out: % Enzyme Activity (relative to DMSO controls) Run 1
[10] = read-out: % Enzyme Activity (relative to DMSO controls) Run 2

T7 sequence (Q9H2X6 whole entry): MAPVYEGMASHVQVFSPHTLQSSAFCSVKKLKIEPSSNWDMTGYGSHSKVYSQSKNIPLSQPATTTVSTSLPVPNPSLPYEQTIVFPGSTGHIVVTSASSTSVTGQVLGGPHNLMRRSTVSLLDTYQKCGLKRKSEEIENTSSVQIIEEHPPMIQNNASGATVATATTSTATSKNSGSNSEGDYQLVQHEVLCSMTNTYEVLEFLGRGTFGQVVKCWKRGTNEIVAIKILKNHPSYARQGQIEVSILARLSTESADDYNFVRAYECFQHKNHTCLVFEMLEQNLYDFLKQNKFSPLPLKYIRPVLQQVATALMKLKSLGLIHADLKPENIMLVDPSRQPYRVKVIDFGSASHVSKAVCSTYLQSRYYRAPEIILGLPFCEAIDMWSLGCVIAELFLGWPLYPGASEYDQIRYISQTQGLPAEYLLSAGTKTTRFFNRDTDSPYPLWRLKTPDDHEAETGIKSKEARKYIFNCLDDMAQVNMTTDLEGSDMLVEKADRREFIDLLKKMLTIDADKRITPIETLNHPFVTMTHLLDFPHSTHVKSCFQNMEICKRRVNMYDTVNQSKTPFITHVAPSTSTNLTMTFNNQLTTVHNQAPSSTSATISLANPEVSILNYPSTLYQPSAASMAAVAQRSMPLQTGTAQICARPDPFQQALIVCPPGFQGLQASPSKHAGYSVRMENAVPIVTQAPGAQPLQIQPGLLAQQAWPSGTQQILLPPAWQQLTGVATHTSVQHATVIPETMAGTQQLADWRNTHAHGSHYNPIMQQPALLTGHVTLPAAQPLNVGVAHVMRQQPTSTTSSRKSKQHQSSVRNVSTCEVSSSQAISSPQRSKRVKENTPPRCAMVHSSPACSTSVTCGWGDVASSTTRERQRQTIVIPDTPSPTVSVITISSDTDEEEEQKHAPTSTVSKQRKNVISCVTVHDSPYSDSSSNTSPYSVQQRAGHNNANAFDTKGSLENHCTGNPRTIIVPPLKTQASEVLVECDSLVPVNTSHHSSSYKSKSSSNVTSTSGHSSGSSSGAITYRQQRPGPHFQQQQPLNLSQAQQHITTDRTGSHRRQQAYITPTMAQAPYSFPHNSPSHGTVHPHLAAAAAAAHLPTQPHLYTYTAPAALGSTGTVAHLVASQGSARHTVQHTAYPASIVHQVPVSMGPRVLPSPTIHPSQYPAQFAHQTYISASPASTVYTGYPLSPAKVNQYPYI
T4 sequence (P05771 1-673 isoform P05771-2): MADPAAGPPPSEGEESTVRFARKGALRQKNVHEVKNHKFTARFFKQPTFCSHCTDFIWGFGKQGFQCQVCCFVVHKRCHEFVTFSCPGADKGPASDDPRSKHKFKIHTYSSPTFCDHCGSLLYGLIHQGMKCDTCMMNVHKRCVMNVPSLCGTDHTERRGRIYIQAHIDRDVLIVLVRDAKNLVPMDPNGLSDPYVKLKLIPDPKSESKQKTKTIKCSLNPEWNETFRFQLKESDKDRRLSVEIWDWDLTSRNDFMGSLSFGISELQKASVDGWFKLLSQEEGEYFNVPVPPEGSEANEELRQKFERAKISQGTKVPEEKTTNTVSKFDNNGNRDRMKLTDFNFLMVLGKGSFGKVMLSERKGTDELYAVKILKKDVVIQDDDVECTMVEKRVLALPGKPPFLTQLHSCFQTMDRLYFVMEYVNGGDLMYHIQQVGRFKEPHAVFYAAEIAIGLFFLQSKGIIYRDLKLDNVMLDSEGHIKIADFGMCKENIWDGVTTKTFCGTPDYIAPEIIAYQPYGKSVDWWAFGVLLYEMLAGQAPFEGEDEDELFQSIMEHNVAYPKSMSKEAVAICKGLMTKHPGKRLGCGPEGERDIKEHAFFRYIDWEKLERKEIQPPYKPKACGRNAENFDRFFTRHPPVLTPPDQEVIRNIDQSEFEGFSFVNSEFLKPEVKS
T6 sequence (Q15375 28-998): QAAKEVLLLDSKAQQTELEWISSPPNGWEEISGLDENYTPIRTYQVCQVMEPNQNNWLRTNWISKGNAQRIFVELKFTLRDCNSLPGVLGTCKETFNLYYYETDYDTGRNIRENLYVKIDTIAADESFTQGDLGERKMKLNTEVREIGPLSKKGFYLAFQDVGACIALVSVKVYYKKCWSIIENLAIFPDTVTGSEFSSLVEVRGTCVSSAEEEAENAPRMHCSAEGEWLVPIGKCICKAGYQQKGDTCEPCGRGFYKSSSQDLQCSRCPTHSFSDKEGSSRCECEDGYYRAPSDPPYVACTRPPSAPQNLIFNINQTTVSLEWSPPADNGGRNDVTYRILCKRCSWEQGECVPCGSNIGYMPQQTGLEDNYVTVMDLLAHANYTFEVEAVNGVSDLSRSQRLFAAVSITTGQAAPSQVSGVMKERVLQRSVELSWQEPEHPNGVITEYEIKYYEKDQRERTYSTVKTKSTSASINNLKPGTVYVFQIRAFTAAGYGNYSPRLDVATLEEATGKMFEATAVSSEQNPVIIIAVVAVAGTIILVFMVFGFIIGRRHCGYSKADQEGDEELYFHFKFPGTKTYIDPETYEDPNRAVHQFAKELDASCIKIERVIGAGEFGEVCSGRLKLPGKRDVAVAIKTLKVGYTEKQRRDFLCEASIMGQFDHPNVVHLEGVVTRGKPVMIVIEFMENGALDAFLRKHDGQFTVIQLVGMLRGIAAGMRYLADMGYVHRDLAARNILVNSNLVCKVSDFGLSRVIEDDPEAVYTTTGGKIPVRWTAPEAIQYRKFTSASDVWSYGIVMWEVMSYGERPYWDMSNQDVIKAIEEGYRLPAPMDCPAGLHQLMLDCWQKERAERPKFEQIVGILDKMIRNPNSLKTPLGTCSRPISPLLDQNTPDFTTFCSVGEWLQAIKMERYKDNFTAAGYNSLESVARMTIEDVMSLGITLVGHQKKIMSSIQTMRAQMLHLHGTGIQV
T8 sequence (Q9BYT3 whole entry): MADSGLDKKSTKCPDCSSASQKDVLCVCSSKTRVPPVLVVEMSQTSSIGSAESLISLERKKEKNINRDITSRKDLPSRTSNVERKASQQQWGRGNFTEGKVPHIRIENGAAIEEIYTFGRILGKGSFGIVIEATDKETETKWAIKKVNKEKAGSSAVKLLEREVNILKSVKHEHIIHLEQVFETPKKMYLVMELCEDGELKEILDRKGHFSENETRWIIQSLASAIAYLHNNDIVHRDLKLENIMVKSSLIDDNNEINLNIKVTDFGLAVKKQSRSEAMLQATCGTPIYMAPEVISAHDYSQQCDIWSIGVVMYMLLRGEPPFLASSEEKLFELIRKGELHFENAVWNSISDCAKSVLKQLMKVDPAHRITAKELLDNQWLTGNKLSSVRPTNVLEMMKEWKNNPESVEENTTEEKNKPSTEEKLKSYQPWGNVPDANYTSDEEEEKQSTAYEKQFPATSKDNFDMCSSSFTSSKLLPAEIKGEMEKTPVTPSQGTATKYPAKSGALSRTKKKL
T1 sequence (Q6IQ55 whole entry): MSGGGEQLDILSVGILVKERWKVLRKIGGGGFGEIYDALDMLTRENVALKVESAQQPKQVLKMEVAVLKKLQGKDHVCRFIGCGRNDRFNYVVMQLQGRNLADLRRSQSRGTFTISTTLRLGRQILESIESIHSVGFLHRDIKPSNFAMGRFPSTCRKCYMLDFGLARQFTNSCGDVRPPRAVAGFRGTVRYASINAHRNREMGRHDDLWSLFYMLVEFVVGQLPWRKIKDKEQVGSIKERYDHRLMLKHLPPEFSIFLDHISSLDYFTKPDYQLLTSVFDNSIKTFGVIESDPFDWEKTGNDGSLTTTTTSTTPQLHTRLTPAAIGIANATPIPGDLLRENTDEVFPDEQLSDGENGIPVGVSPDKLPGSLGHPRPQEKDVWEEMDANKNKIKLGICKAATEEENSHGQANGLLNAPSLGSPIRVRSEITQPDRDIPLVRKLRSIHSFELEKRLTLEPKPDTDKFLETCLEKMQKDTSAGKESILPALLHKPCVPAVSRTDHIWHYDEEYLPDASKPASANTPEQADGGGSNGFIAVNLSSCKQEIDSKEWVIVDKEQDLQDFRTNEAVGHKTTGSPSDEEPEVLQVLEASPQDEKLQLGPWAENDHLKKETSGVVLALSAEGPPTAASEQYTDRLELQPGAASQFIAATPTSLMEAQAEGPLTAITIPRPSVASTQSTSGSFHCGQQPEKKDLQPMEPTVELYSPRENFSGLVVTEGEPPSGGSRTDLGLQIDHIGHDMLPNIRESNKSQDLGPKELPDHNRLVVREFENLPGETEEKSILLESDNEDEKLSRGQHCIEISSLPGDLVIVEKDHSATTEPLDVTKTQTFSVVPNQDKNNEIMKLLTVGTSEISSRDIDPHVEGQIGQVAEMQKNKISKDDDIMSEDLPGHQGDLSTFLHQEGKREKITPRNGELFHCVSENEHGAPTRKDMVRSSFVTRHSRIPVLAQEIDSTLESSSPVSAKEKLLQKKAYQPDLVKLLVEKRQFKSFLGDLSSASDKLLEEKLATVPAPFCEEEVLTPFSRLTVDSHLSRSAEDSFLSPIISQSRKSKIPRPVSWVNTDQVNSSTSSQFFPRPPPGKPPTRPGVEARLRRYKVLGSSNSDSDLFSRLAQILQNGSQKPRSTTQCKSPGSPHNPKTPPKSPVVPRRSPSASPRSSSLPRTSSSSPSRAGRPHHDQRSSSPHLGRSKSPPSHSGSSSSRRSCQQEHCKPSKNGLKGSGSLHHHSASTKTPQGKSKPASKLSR

## C=CC(=O)Nc1cccc(Nc2nc(Nc3ccc(OCCOC)c(F)c3)ncc2F)c1 [Compound 2]
[1]
  inhibition at 3 µM: -0.86%
[1]; [9]
  remaining activity at 3 µM: 102%
[1]; [10]
  remaining activity at 3 µM: 99.7%
[2]
  inhibition at 3 µM: 8.54%
[2]; [9]
  remaining activity at 3 µM: 91.4%
[2]; [10]
  remaining activity at 3 µM: 91.5%
[3]
  inhibition at 3 µM: 6.15%
[3]; [9]
  remaining activity at 3 µM: 93.1%
[3]; [10]
  remaining activity at 3 µM: 94.6%
[4]
  inhibition at 3 µM: 50.5%
[4]; [9]
  remaining activity at 3 µM: 50.1%
[4]; [10]
  remaining activity at 3 µM: 48.9%
[5]
  inhibition at 3 µM: 38.5%
[5]; [9]
  remaining activity at 3 µM: 61%
[5]; [10]
  remaining activity at 3 µM: 62.1%
[6]
  inhibition at 3 µM: 37.9%
[6]; [9]
  remaining activity at 3 µM: 60%
[6]; [10]
  remaining activity at 3 µM: 64.1%
[7]
  inhibition at 3 µM: 2.82%
[7]; [9]
  remaining activity at 3 µM: 95.8%
[7]; [10]
  remaining activity at 3 µM: 98.6%
[8]
  inhibition at 3 µM: 48.1%
[8]; [9]
  remaining activity at 3 µM: 51.2%
[8]; [10]
  remaining activity at 3 µM: 52.5%
